Drawing on patent EP2910557A1, “Enantiopure tetrasubstituted pyrrolidines as scaffolds for proteasome inhibitors and medicinal applications thereof” (Ikerchem, S.L., priority 2014, dated 2015), this text covers inhibition and IC50 for 10 compounds.

The target in the assay is T1, Human erythrocyte 20S proteasome (Homo sapiens, UniProt P28074).
T1 construct: Enzyme: Human erythrocyte 20S proteasome; from tissue; host or cells: human erythrocytes
The assay can be described thus: In vitro enzymatic assay of proteasome inhibitory activity (Suc-Leu-Leu-Val-Tyr-AMC substrate). The format is biochemical. The note with it: for inhibition at 0.5 µM: Concentration 500 nM; for IC50: human erythrocyte 20S proteasome, 10 µM Suc-Leu-Leu-Val-Tyr-AMC, 37°C; for inhibition at 1 µM: Concentration 1000 nM. As for the experimental part: Example 20: In vitro enzymatic assay of proteasome inhibitory activity.
Substrate: Suc-Leu-Leu-Val-Tyr-AMC
Assay buffer: 250 mM HEPES, pH 7.5, 0.5 mM EDTA, 0.03% SDS, 0.05% Igepal CA-630.
Enzyme: Human erythrocyte 20S proteasome
In vitro proteasome inhibitory activity of the compounds of the invention is evaluated by spectrofluorimetric quantitation of AMC. Stock solutions of compounds of the invention are prepared in dimethyl sulphoxide (DMSO). Test compound and/or vehicle is preincubated with […] enzyme (human erythrocyte 20S proteasome) in modified HEPES buffer pH 7.5 and 1% final concentration of DMSO for 15 minutes at 37°C. The reaction is initiated by addition of 10 µM Suc-Leu-Leu-Val-Tyr-AMC for another 30 minutes incubation period at 37°C. Determination of the release of AMC is read spectrophotometrically (excitation, 380 nm; emission, 460 nm). IC50 values are determined by a non-linear, least squares regression analysis using MathlQTM (ID Business Solutions Ltd., UK).

With `COC(=O)[C@H]1[C@H](C(=O)OC)[C@H](c2ccccc2)N[C@@H]1C(=O)N[C@@H](CC(C)C)B(O)O` [Example 17, (R)-1-((2S,3S,4S,5R)-3,4-bis(methoxycarbonyl)-5-phenylpyrrolidine-2-carboxamido)-3-methylbutylboronic acid], the inhibition (usually the share of the control response that was lost under treatment) at 0.5 µM is 20%.
With `CC(C)C[C@H](NC(=O)[C@@H]1N[C@H](c2ccccc2)[C@@H]([N+](=O)[O-])[C@@H]1c1ccc2ccccc2c1)B(O)O` [Example 9, (R)-3-methyl-1-((2R,3R,4S,5R)-3-(naphthalen-2-yl)-4-nitro-5-phenylpyrrolidine-2-carboxamido)butylboronic acid], testing at 0.5 µM gave an inhibition of 69% and the midpoint of inhibition, the IC50, lay at 150 nM.
Take `CC(C)C[C@H](NC(=O)[C@@H]1N[C@H](c2ccccc2)[C@@H]2C(=O)N(C)C(=O)[C@@H]21)B(O)O` [Example 19, (R)-3-methyl-1-((1R,3S,3aR,6aS)-5-methyl-4,6-dioxo-3-phenyloctahydropyrrolo[3,4-c]pyrrole-1-carboxamido)butylboronic acid]: the half-maximal inhibitory concentration (IC50) (usually the concentration that inhibits the measured activity by half) came out at 46 nM. Under “Concentration 100 nM”, this compound gave an inhibition at 0.1 µM of 68%.
As for `CC(C)C[C@H](NC(=O)[C@@H]1N[C@H](c2cccc3ccccc23)[C@H]([N+](=O)[O-])[C@H]1c1ccccc1)B(O)O` [Example 16, (R)-3-methyl-1-((2R,3S,4R,5R)-5-(naphthalen-1-yl)-4-nitro-3-phenylpyrrolidine-2-carboxamido)butylboronic acid], testing at 0.5 µM gave an inhibition of 33%.
In turn, `CC(C)C[C@H](NC(=O)[C@@H]1N[C@H](c2cccnc2)[C@@H]([N+](=O)[O-])[C@@H]1c1ccccc1)B(O)O` [Example 15, (R)-3-methyl-1-((2R,3R,4S,5R)-4-nitro-3-phenyl-5-(pyridin-3-yl)pyrrolidine-2-carboxamido)butylboronic acid] came in with an inhibition at 0.5 µM of 72% and a 50% inhibitory concentration (IC50) of 100 nM.
With `CC(C)C[C@H](NC(=O)[C@@H]1N[C@H](c2ccccc2)[C@@H]([N+](=O)[O-])[C@@H]1c1ccc([N+](=O)[O-])cc1)B(O)O` [Example 8, (R)-3-methyl-1-((2R,3R,4S,5R)-4-nitro-3-(4-nitrophenyl)-5-phenylpyrrolidine-2-carboxamido)butylboronic acid], the inhibition at 0.5 µM was found to be 69% and half-maximal inhibition (IC50) required 150 nM.
In the case of `CC(C)C[C@H](NC(=O)[C@H]1N[C@@H](c2ccccc2)[C@H]2C(=O)N(C)C(=O)[C@H]21)B(O)O` [Example 18, (R)-3-methyl-1-((1S,3R,3aS,6aR)-5-methyl-4,6-dioxo-3-phenyloctahydropyrrolo[3,4-c]pyrrole-1-carboxamido)butylboronic acid], the inhibition at 1 µM is 53% and the IC50 was 920 nM.
Compound `CC(C)C[C@H](NC(=O)[C@H]1N[C@@H](c2ccccc2)[C@H]([N+](=O)[O-])[C@H]1c1ccccc1)B(O)O` [Example 2, (R)-3-methyl-1-((2S,3S,4R,5S)-4-nitro-3,5-diphenylpyrrolidine-2-carboxamido)butylboronic acid] came in with an inhibition at 1 µM of 70% and an IC50 of 430 nM.
`CC(C)C[C@H](NC(=O)[C@@H]1N[C@H](c2cccc3ccccc23)[C@@H]([N+](=O)[O-])[C@@H]1c1ccccc1)B(O)O` [Example 13, (R)-3-methyl-1-((2R,3R,4S,5R)-5-(naphthalen-1-yl)-4-nitro-3-phenylpyrrolidine-2-carboxamido)butylboronic acid] had an IC50 of 39 nM. The inhibition at 0.05 µM (Concentration 50 nM) is 54%.
`Cc1ccc([C@H]2[C@H]([N+](=O)[O-])[C@@H](c3ccccc3)N[C@H]2C(=O)N[C@@H](CC(C)C)B(O)O)cc1` [Example 5, (R)-3-methyl-1-((2R,3R,4S,5R)-4-nitro-5-phenyl-3-p-tolylpyrrolidine-2-carboxamido)butylboronic acid] displayed an inhibition at 0.5 µM of 77% and an IC50 of 78 nM.
